Source: US10865222B2, “Neisseria gonorrhoeae therapeutic based on CMP-nonulosonate sugars” (priority 2014, dated 2020)

Tests used:
[1] = system: N. gonorrhoeae F62 ΔIgtD; experiment: Flow cytometry for factor H binding to bacteria; type: cell-based; design: key to fH binding: minimal: compared to unsialylated gonococci; details: for fH binding facilitated by CMP-Neu5Ac: analogue added within 2 min of CMP-Neu5Ac 20 μg/ml
Description: FIG. 3. Effects of LOS modification with various nonulosonate analogues on fH binding to N. gonorrhoeae. N. gonorrhoeae F62 ΔIgtD was grown in media alone, or media supplemented with 20 μg/ml (˜30 μM) of each of the indicated CMP-nonulosonates. Binding of bacteria to fH (10 μg/ml) was measured by flow cytometry using polyclonal goat anti-human fH. The control indicates reaction mixtures that lacked fH. Y-axis, median fluorescence of fH binding. The mean (SD) of 2 independent repeats is shown.
FIG. 7. […] A. N. gonorrhoeae F62 ΔIgtD was incubated in media containing CMP-Neu5Ac (20 μg/ml), followed […] by the addition of either CMP-Neu5Ac9Az or CMP-Leg5Ac7Ac (20, 2 or 0.2 μg/ml). Bacteria were grown for 2 h and fH binding detected by FACS using polyclonal goat anti-human fH. The Y-axis represents median fluorescence. The mean (SEM) of two independent observations is shown. B. Development of serum resistance lags behind fH binding when measured as a function of time of exposure of bacteria to CMP-Neu5Ac. CMP-Neu5Ac (20 μg/ml) was added to media containing F62 ΔIgtD and bacteria were taken at the time points indicated on the X-axis and assayed for fH binding by FACS with anti-fH mAb 90× (left Y-axis; median fluorescence (SEM)), or tested for its ability to resist killing by 10% NHS (right Y-axis; percent survival). The data represent 2-3 independent experiments. C. Representative histograms of a fH binding FACS experiment.
The addition of a terminal Neu5Ac residue to LNT-expressing LOS enhances binding of the alternative pathway inhibitor, factor H, which contributes to the ability of sialylated gonococci to resist killing by complement (7). fH binding to N. gonorrhoeae F62 ΔIgtD grown in the presence of each of the CMP-nonulosonates (20 μg/ml or 30 μM) was examined (FIG. 3). […] Reducing the CMP-nonulosonate concentrations in growth media to 2 μg/ml (3 μM) yielded similar fH binding results (FIG. 9B). Further, modification of LOS with Neu5Ac or Neu5Gc yielded similar amounts of fH binding over CMP-sialic acid concentrations ranging from 0.5 to 4 μg/ml, with near maximal fH binding observed even at the lowest concentration tested (FIG. 9C).
fH binding to bacteria was performed using flow cytometry as described previously (14). Briefly, bacteria (F62 ΔIgtD) were harvested from chocolate agar plates and grown in liquid media that contained the specified concentration of the CMP-nonulosonate as described above. Bacteria were then washed with Hanks Balanced Salt Solution (HBSS) containing 1 mM Ca^2+ and 1 mM Mg^2+ (HBSS^++) and incubated with fH purified from human plasma (Complement Technology, Inc.; concentration specified for each experiment). Bound fH was detected using either anti-fH mAb (Quidel, catalog no. A254 (mAb 90×)) or goat anti-human fH, followed by FITC conjugated anti-mouse IgG or anti-goat IgG, respectively (Sigma); both Abs had similar performance characteristics. All reaction mixtures were carried out in HBSS^++/1% BSA in a final volume of 50 μl. Flow cytometry was performed using a FACSCalibur instrument (Becton Dickinson) and data were analyzed using FlowJo (version 7.2.5; Tree Star, Inc.).

[2] = system: Ng 398078 (expresses P^K-like structure on HepI); experiment: Complement resistance of Ng 398078 (serum bactericidal assay); type: cell-based, N. gonorrhoeae; details: 10% normal human serum
Description: CMP-Leg5Ac7Ac and CMP-Neu5Ac9Az also counteracted CMP-Neu5Ac-mediated serum resistance of a P^K LOS expressing isolate called 398078 (Table 4).
Serum bactericidal assays were performed as described previously (11). Bacteria harvested from an overnight culture on chocolate agar plates were grown in liquid media containing the specified concentration of CMP-nonulosonate as specified for each experiment. Approximately 2000 CFU of F62 ΔIgtD were incubated with NHS (concentration specified for each experiment). The final reaction volumes were maintained at 150 μl. Aliquots of 25 μl of reaction mixtures were plated onto chocolate agar in duplicate at the beginning of the assay (t0) and again after incubation at 37° C. for 30 min (t30). Survival was calculated as the number of viable colonies at t30 relative to t0.

[3] = CMP-NulO 20 μg/ml added to media 15 min after CMP-Neu5Ac 20 μg/ml
[4] = CMP-nonulosonate 20 μg/ml or 30 μM, vs unsialylated F62 ΔIgtD

| Compound | fH binding facilitated by CMP-Neu5Ac [1] | fH binding ([1]; summary Table 1) | % survival [mean (range)] [2, 3] | % survival [mean (range)] ([2]; CMP-NulO alone at 20 μg/ml) | fH binding [1, 4] | fH binding as function of time of exposure ([1]; CMP-Neu5Ac 20 μg/ml, 2 min) | fH binding, % of maximal binding ([1]; CMP-Neu5Ac 20 μg/ml, by 16 min) [%] | fH binding as function of time of exposure ([1]; CMP-Neu5Ac 20 μg/ml, by 32 min) | fH binding ([1]; CMP-sialic acid 0.5 to 4 μg/ml, lowest concentration tested) |
| --- | --- | --- | --- | --- | --- | --- | --- | --- | --- |
| CC(=O)N[C@H]1[C@H]([C@H](O)[C@H](O)CN=[N+]=[N-])OC(OP(=O)(O)OC[C@H]2O[C@@H](n3ccc(N)nc3=O)[C@H](O)[C@@H]2O)(C(=O)O)C[C@@H]1O (stereo partly drawn) [CMP-Neu5Ac9Az, CMP-5-acetamido-9-azido-3,5,9-trideoxy-D-glycero-D-galacto-nonulosonic acid] | did not interfere with fH binding | minimal^A | 7.5 (5.2) % | 7.1 (2.3) % |  |  |  |  |  |
| CC(=O)N[C@H]1[C@H]([C@H](O)[C@H](O)COC(C)=O)OC(OP(=O)(O)OC[C@H]2O[C@@H](n3ccc(N)nc3=O)[C@H](O)[C@@H]2O)(C(=O)O)C[C@@H]1O (stereo partly drawn) [CMP-Neu5Ac9Ac, CMP-5-acetamido-9-O-acetyl-3,5-dideoxy-D-glycero-D-galacto-nonulosonic acid] |  | intermediate |  |  | intermediate |  |  |  |  |
| 5,7-diacetamido-3,5,7,9-tetradeoxy-D-glycero-D-galacto-nonulosonic acid [CMP-Leg5Ac7Ac] | did not interfere with fH binding | minimal | 0 (0) % | 0 (0) % |  |  |  |  |  |
| CC(=O)NC1C(O)CC(OP(=O)(O)OCC2OC(n3ccc(N)nc3=O)C(O)C2O)(C(=O)O)OC1C(O)C(O)CO [CMP-Neu5Ac, CMP-5-acetamido-3,5-dideoxy-D-glycero-D-galacto-nonulosonic acid, reference compound] |  | high |  | 57.5 (1.6) % | Maximal | barely any fH binding above control levels | ~70 | near maximal binding | near maximal |
| COC(CO)C(O)C1OC(OP(=O)(O)OCC2OC(n3ccc(N)nc3=O)C(O)C2O)(C(=O)O)CC(O)C1NC(=O)CO [CMP-Neu5Gc8Me, CMP-5-hydroxyacetamido-8-O-methyl-3,5-dideoxy-D-glycero-D-galacto-nonulosonic acid] |  | minimal |  |  |  |  |  |  |  |
